Species: Rattus norvegicus
Experiment: Open TG-GATES - Regimen: Single
Assay type: toxicity, organism-based, Sprague-Dawley
Parameters: regimen Single, gender Male, age 6 weeks
Details: in vivo, iv, 120 mg/kg, route intravenous injection, dose level High; for APTT / Bas / Eos / Fbg / Hb / Ht / Lym / MCH / MCHC / MCV / Mono / Neu / PT / Plat / RBC / Ret / WBC: tissue Blood; for KIDNEY_L / KIDNEY_R / KIDNEY_TOTAL: tissue Kidney; for LIVER: tissue Liver; for A/G / ALP / ALT / AST / BUN / CRE / Ca / Cl / DBIL / GLC / IP / K / LDH / Na / PL / RALB / TBIL / TC / TG / TP / gamma-GTP: tissue Plasma

CN(C)c1ncnc2c1ncn2[C@@H]1O[C@H](CO)[C@@H](N)[C@H]1O [PUROMYCIN AMINONUCLEOSIDE]
TERMINAL_BW (3 h): 210.5 g | APTT (3 h): 22.4 s | Bas (3 h): 0% | Eos (3 h): 0.8% | Fbg (3 h): 278.6 mg/dL | Hb (3 h): 12.8 g/dL | Ht (3 h): 37.9% | Lym (3 h): 44.4% | MCH (3 h): 21.1 pg | MCHC (3 h): 33.8% | MCV (3 h): 62.5 fL | Mono (3 h): 3% | Neu (3 h): 51.2% | PT (3 h): 16.3 s | Plat (3 h): 116 x10_4/uL | RBC (3 h): 607 x10_4/ul | Ret (3 h): 6.7% | WBC (3 h): 133.5 x10_2/uL | KIDNEY_L (3 h): 1 g | KIDNEY_R (3 h): 0.9 g | KIDNEY_TOTAL (3 h): 1.9 g | LIVER (3 h): 9 g | A/G (3 h): 1.3 | ALP (3 h): 1280.6 IU/L | ALT (3 h): 43.4 IU/L | AST (3 h): 82.8 IU/L | BUN (3 h): 13.8 mg/dL | CRE (3 h): 0.2 mg/dL | Ca (3 h): 11 mg/dL | Cl (3 h): 104.8 meq/L | DBIL (3 h): 0.002 mg/dL | GLC (3 h): 163.2 mg/dL | IP (3 h): 9.3 mg/dL | K (3 h): 4.1 meq/L | LDH (3 h): 162.8 IU/L | Na (3 h): 141.4 meq/L | PL (3 h): 140.4 mg/dL | RALB (3 h): 3 g/dL | TBIL (3 h): 0.032 mg/dL | TC (3 h): 69 mg/dL | TG (3 h): 88.2 mg/dL | TP (3 h): 5.3 g/dL | gamma-GTP (3 h): 1.4 IU/L | TERMINAL_BW (6 h): 213.9 g | APTT (6 h): 22.1 s | Bas (6 h): 0% | Eos (6 h): 0.6% | Fbg (6 h): 304.8 mg/dL | Hb (6 h): 12.6 g/dL | Ht (6 h): 37.5% | Lym (6 h): 43.2% | MCH (6 h): 20.7 pg | MCHC (6 h): 33.6% | MCV (6 h): 61.6 fL | Mono (6 h): 3.6% | Neu (6 h): 51.2% | PT (6 h): 15.8 s | Plat (6 h): 121.6 x10_4/uL | RBC (6 h): 608.8 x10_4/ul | Ret (6 h): 6.9% | WBC (6 h): 133.1 x10_2/uL | KIDNEY_L (6 h): 0.9 g | KIDNEY_R (6 h): 1 g | KIDNEY_TOTAL (6 h): 1.9 g | LIVER (6 h): 9.3 g | A/G (6 h): 1.3 | ALP (6 h): 1220.8 IU/L | ALT (6 h): 40.8 IU/L | AST (6 h): 75 IU/L | BUN (6 h): 11.6 mg/dL | CRE (6 h): 0.1 mg/dL | Ca (6 h): 11.3 mg/dL | Cl (6 h): 103.6 meq/L | DBIL (6 h): 0.004 mg/dL | GLC (6 h): 165.2 mg/dL | IP (6 h): 10.4 mg/dL | K (6 h): 4.3 meq/L | LDH (6 h): 135.8 IU/L | Na (6 h): 140 meq/L | PL (6 h): 151 mg/dL | RALB (6 h): 3 g/dL | TBIL (6 h): 0.042 mg/dL | TC (6 h): 79.8 mg/dL | TG (6 h): 60.4 mg/dL | TP (6 h): 5.4 g/dL | gamma-GTP (6 h): 1.6 IU/L | TERMINAL_BW (9 h): 213.9 g | APTT (9 h): 22.8 s | Bas (9 h): 0% | Eos (9 h): 1% | Fbg (9 h): 298.6 mg/dL | Hb (9 h): 12.8 g/dL | Ht (9 h): 38.3% | Lym (9 h): 56% | MCH (9 h): 20.9 pg | MCHC (9 h): 33.5% | MCV (9 h): 62.5 fL | Mono (9 h): 2.8% | Neu (9 h): 39.6% | PT (9 h): 15.4 s | Plat (9 h): 116 x10_4/uL | RBC (9 h): 614 x10_4/ul | Ret (9 h): 6.9% | WBC (9 h): 117.1 x10_2/uL | KIDNEY_L (9 h): 1 g | KIDNEY_R (9 h): 1 g | KIDNEY_TOTAL (9 h): 2 g | LIVER (9 h): 8.2 g | A/G (9 h): 1.2 | ALP (9 h): 1175.4 IU/L | ALT (9 h): 42 IU/L | AST (9 h): 79.6 IU/L | BUN (9 h): 11.8 mg/dL | CRE (9 h): 0.1 mg/dL | Ca (9 h): 10.8 mg/dL | Cl (9 h): 103.4 meq/L | DBIL (9 h): 0 mg/dL | GLC (9 h): 176.4 mg/dL | IP (9 h): 10.3 mg/dL | K (9 h): 4.2 meq/L | LDH (9 h): 129.2 IU/L | Na (9 h): 139.6 meq/L | PL (9 h): 136.6 mg/dL | RALB (9 h): 3 g/dL | TBIL (9 h): 0.03 mg/dL | TC (9 h): 75.4 mg/dL | TG (9 h): 56.6 mg/dL | TP (9 h): 5.4 g/dL | gamma-GTP (9 h): 1.6 IU/L | TERMINAL_BW (24 h): 212.8 g | APTT (24 h): 20.5 s | Bas (24 h): 0% | Eos (24 h): 0.6% | Fbg (24 h): 343 mg/dL | Hb (24 h): 12.9 g/dL | Ht (24 h): 37.4% | Lym (24 h): 85% | MCH (24 h): 20.5 pg | MCHC (24 h): 34.6% | MCV (24 h): 59.4 fL | Mono (24 h): 3.8% | Neu (24 h): 9.6% | PT (24 h): 15.7 s | Plat (24 h): 121.3 x10_4/uL | RBC (24 h): 629 x10_4/ul | Ret (24 h): 4.1% | WBC (24 h): 73.2 x10_2/uL | KIDNEY_L (24 h): 0.9 g | KIDNEY_R (24 h): 0.9 g | KIDNEY_TOTAL (24 h): 1.8 g | LIVER (24 h): 9.4 g | A/G (24 h): 1.3 | ALP (24 h): 1135 IU/L | ALT (24 h): 39.8 IU/L | AST (24 h): 70 IU/L | BUN (24 h): 27.2 mg/dL | CRE (24 h): 0.2 mg/dL | Ca (24 h): 11.4 mg/dL | Cl (24 h): 103.4 meq/L | DBIL (24 h): 0 mg/dL | GLC (24 h): 171.8 mg/dL | IP (24 h): 10.5 mg/dL | K (24 h): 4.8 meq/L | LDH (24 h): 142.8 IU/L | Na (24 h): 141 meq/L | PL (24 h): 142.4 mg/dL | RALB (24 h): 3.2 g/dL | TBIL (24 h): 0.028 mg/dL | TC (24 h): 79.4 mg/dL | TG (24 h): 59.2 mg/dL | TP (24 h): 5.8 g/dL | gamma-GTP (24 h): 1.4 IU/L

Source: ChEMBL document CHEMBL3885861, “Open TG-GATES”
